Test results: patent US11298330B2, “Magnesium compositions and methods of use” (Neurocentria, Inc., priority 2017, dated 2022)

Key:
[1] = tested on: young (9-month old) and aged (25-month old) rats; conditions: food containing 2% magnesium oxide for 8 days, cited from earlier work
diabetic patients [2] = conditions: nearly 1 g of magnesium daily for 1 month; cited from earlier work
[3] = tested on: cultured rat hippocampal neurons; test: Probability of transmitter release (Pr) by FM dye uptake; format: cell-based; conditions: extracellular magnesium concentration from 0.8 mM to 1.2 mM for 4 h
Procedure: An example of the effect of calcium and magnesium on the regulation of Probability of transmitter release (Pr) is shown in FIG. 3. In an experiment, rat hippocampal neurons were cultured in vitro in varying concentrations of extracellular calcium or magnesium, thereby effectively varying concentrations of intracellular calcium or magnesium. A traceable dye was used as a model neurotransmitter to measure the change in Pr. […] Furthermore, at a relatively low intracellular calcium concentration, the inverse relationship between intracellular magnesium concentration and Pr was more apparent, as shown in FIG. 3B. At a low calcium concentration condition, increasing the extracellular magnesium concentration promoted more synapses with a higher intracellular magnesium concentrations and low Pr values. […]
The Probability of transmitter release (Pr) of cultured rat hippocampal neurons was measured by quantification of N-β-Triethylammoniumpropyl)-4-(4-(Dibutylamino) Styryl) Pyridinium Dibromide (FM) dye uptake following a string of 30 single 1 Hertz (Hz) action potentials (Pr1Ap). […] Intracellular magnesium concentration was quantified by the intensity of MgGreen (MgGrn), a fluorescent dye that was proportional to magnesium concentration (Zhou et al., 2015).

diabetic patients [4] = conditions: 720 mg/day for three months; cited from earlier work

SMILES: [O]=[Mg] [magnesium oxide]
- side-effect [1]: diarrhea and weight loss
- cognitive function ([1]; gain transient): some sign of improvement
- increase of serum magnesium level (diabetic patients [2]): about 10%
- metabolic control (diabetic patients [2]): only minor improvement

SMILES: [Mg+2] [magnesium]
- effect on calcium-Pr relationship [3]: shifted the calcium-Pr relationship to the right
- blood magnesium levels raised, on average (diabetic patients [4]): about 10%
- metabolic control as assessed by HbAlc levels (diabetic patients [4]): no improvement
